Several values for one entry are separate records, joined by “and”; a condition that tells them apart may be missing. Equal values may be shown once.
Experiments:
[1] = review as at 18 Nov. 2004; cited from earlier work
[2] = FDA MEDWATCH, in words; cited from earlier work
[3] = Kinetic study of slow-release propranolol granules given by mouth to anaesthetised dogs; portal venous and systemic blood concentration; format: in vivo; conditions: for Propranolol Concentration, Systemic: systemic blood
Source text: Experiments were undertaken in four dogs under general anaesthesia induced with halothane and then maintained with ketamine and xylazine. Cardiovascular status was monitored by measurement of heart rate and blood pressure and by measurement of arterial blood gases. Ventilation was assisted to maintain blood gases within physiological limits. A catheter was placed in the femoral artery to permit sampling of arterial blood. After laparotomy, a catheter was placed in a mesenteric vein and advanced to the portal vein to permit sampling of portal venous blood samples.
Propranolol was administered by mouth on the evening before, and then again one hour before the study as a dose of 40 mg in granules taken from a 160 mg slow release formulation of propranolol (Cardinol; Pacific Pharmaceuticals New Zealand). […] The animals were sacrificed at the end of he experiment.
The concentration in systemic blood was generally below the level of detection (<5 ug/ml).

[4] = in vivo; cited from earlier work

CC(C)c1c(C(=O)Nc2ccccc2)c(-c2ccccc2)c(-c2ccc(F)cc2)n1CC[C@@H](O)C[C@@H](O)CC(=O)O [Atorvastatin]
transient global amnesia cases within Australia [1]: 7 cases

COCc1c(C(C)C)nc(C(C)C)c(/C=C/[C@@H](O)C[C@@H](O)CC(=O)O)c1-c1ccc(F)cc1 [Cerivastatin, cerivastatin]
implication in statin-associated rhabdomyolysis reports [2]: most commonly implicated statin

CC[C@H](C)C(=O)O[C@H]1C[C@H](O)C=C2C=C[C@H](C)[C@H](CC[C@@H](O)C[C@@H](O)CC(=O)O)[C@H]21 [Pravastatin]
transient global amnesia cases within Australia [1]: 3 cases

CC(C)NCC(O)COc1cccc2ccccc12 (centres unmarked) [Propranolol, propranolol]
concentration at 60 min ([3]; dog, portal venous whole blood, oral, 40 mg, portal vein, 60 min, individual dogs 1-4): 5800 ng/mL | concentration in systemic blood ([3]; generally below the level of detection, summary of the table): < 5000 ng/mL | Propranolol Concentration, Portal Vein ([3]; portal vein, 30 min, individual dogs 1-4): 11.5 µg/mL and 11.8 µg/mL and 13 µg/mL and 2 µg/mL | Propranolol Concentration, Portal Vein ([3]; portal vein, 60 min, individual dogs 1-4): 10.9 µg/mL and 10 µg/mL and 6 µg/mL | Propranolol Concentration, Portal Vein ([3]; portal vein, 90 min, individual dogs 1-4): 22 µg/mL and 14.4 µg/mL and 10 µg/mL and 5 µg/mL | Propranolol Concentration, Portal Vein ([3]; portal vein, 120 min, individual dogs 1-4): <5 µg/mL and 13 µg/mL and 4 µg/mL | Propranolol Concentration, Portal Vein ([3]; portal vein, Baseline, 40 mg slow-release granules by mouth evening before and one hour before study, individual dogs 1-4): <5 µg/mL and 28.8 µg/mL and 21 µg/mL and 36 µg/mL | portal versus systemic concentration (liver selectivity) ([3]; small series in dogs, conclusion in words): concentration gradients between portal and systemic vessels | Propranolol Concentration, Systemic ([3]; 30 min, individual dogs 1-4): <5 ug/ml (2×) and 2 ug/ml and <2 ug/ml | Propranolol Concentration, Systemic ([3]; 60 min, individual dogs 1-4): 6.2 µg/mL and <5 µg/mL and 2 µg/mL and <2 µg/mL | Propranolol Concentration, Systemic ([3]; 90 min, individual dogs 1-4): 5.8 µg/mL and <5 µg/mL and 2 µg/mL and <2 µg/mL | Propranolol Concentration, Systemic ([3]; 120 min, individual dogs 1-4): <5 µg/mL and 2 µg/mL and <2 µg/mL | Propranolol Concentration, Systemic ([3]; Baseline, individual dogs 1-4): <5 ug/ml (2×) and 3 ug/ml and <2 ug/ml

CCC(C)(C)C(=O)O[C@H]1C[C@@H](C)C=C2C=C[C@H](C)[C@H](CC[C@@H]3C[C@@H](O)CC(=O)O3)[C@H]21 [simvastatin]
half-life [4]: 42 to 240 min
